Laboratory results: article PMC7523331, “Curcumin derivative C212 inhibits Hsp90 and eliminates both growing and quiescent leukemia cells in deep dormancy” (Cell Communication and Signaling : CCS, 2020)

Molecular target: T1, Hsp90
T1 construct: gene HSP82; C-terminus of Hsp90 (C-Hsp90, 629–732, 15 kDa), His-tagged
Assay: intrinsic fluorescence quenching titration with purified Hsp90 domains
Format: binding
Description: intrinsic fluorescence quenching titration with purified Hsp90 domains on Hsp90 | Dissociation constant (Kd) values of C212 with different Hsp90 domains

Kd: 15.3 ± 1.2 µM
Compound: O=C(/C=C/c1cccnc1)C(Cc1ccccc1Cl)C(=O)/C=C/c1cccnc1 [C212, (1E,6E)-4-(2-Chlorinebenzyl)-1,7-bis(3-pyridine)-1,6-heptadiene-3,5-dione]
